Molecules are shown by their SMILES.

In test [1] the test system is tomato cotyledon explants. The test is described as follows: Shoot regeneration from tomato cotyledon explants with 1 mg/L BAP (Experiment 3). It is filed as cell-based, tomato cultivar Roma VF. The source says:
The sterilized seeds were germinated on half-strength Murashige and Skoog (MS) medium in vitro. Cotyledons from 10-day old seedlings before first true leaves emerged were used as starting explants in all the experiments. The base and tip of the cotyledons were excised and the explants were transferred with the abaxial surface in contact with the culture medium. The basic culture medium consists of MS medium with vitamins supplemented with 30 g/L sucrose and gelled with 0.8% agar, and the pH of the medium was adjusted to 5.8±0.2. […] All experiments were conducted with at least three replicates of 10 explants each.
To analyse the effects on shoot regeneration, the basic media was supplemented with 1 mg/L BAP and different concentrations of TAA, IAA, NAA, IBA and 2,4 D (0.05, 0.1, 0.5, 1.0 and 2.0 mg/L) individually. Since there are no previous reports on suitable concentration ranges for TAA in tomato regeneration, concentrations at 50.0, 100.0, 200.0 and 300.0 mg/L were analysed additionally for TAA.

For test [2], the system named is tomato cotyledon explants. Nature of the test: Root regeneration from tomato cotyledon explants in vitro (Experiment 2). The settings on record: 0.05 and 0.1 mg/L, no other hormones; for organogenesis from tomato cotyledon explants (root formation): within 7 days. It is filed as cell-based, tomato cultivar Roma VF. Here is the method: Seeds of tomato cultivar Roma VF were sterilized by treating with 75% ethanol for 30 seconds at room temperature and washed with sterile water for five times. The seeds were then treated with 15% sodium hypochlorite for 10 minutes and washed five times in sterile water. The sterilized seeds were germinated on half-strength Murashige and Skoog (MS) medium in vitro. Cotyledons from 10-day old seedlings before first true leaves emerged were used as starting explants in all the experiments. The base and tip of the cotyledons were excised and the explants were transferred with the abaxial surface in contact with the culture medium. The basic culture medium consists of MS medium with vitamins supplemented with 30 g/L sucrose and gelled with 0.8% agar, and the pH of the medium was adjusted to 5.8±0.2. Plates were maintained at a light cycle of 16/8 hours day/night, temperature of 26/24° C. day/night, and relative humidity of 70% and subcultured on the same media after 14 days. Observations were made on 7, 14, 21 and 28 days of growth. All experiments were conducted with at least three replicates of 10 explants each.
In order to analyze the effect of TAA on root regeneration, the basic media were supplemented with different concentrations of TAA (0.05 and 0.1 mg/L) and further compared with individual effect of widely used auxins (IAA, NAA, IBA, 2,4 D) at similar concentrations.

Test [3] has as its system WT Arabidopsis seedlings. Nature of the test: Root growth of WT Arabidopsis seedlings (Experiment 6). Format: in vivo, A. thaliana. Particulars: Arabidopsis thaliana, 144 h; 6 days growth, 8-day-old seedlings; read-out: concentration that reduced the primary root length to 50% of control. Here is the method: (§1) Arabidopsis Columbia-0 wild type (WT) was used for assessing the effect of TAA on root growth and its effects on the expression of auxin-responsive genes. Seeds of A. thaliana were surface sterilized by suspending in 70% ethanol for 1 minute, followed by treatment with 10% bleach for 20 minutes. After thorough washing with sterile distilled water, the sterilized seeds were plated onto germination medium (half-strength Murashige and Skoog basal medium with vitamins (1/2 MS) medium supplemented with 1% sucrose and 0.7% plant agar) for germination. Germination was initiated by incubating the seeds in darkness at 5° C. for 2 days, followed by transfer to a light environment at 22° C. with a photoperiod of 16-h light/8-h dark for further growth. Stock solutions of TAA were prepared in DMSO (dimethyl sulfoxide). In control treatments, DMSO was used in equal amounts as present in the greatest concentration of TAA tested.
To analyze the effect of TAA on root growth, WT Arabidopsis seedlings were germinated as described and uniform-looking 8-day-old seedlings were transferred to germination medium supplemented with different concentrations of TAA (0.1, 1, 2, 5, 10, 25, 50, and 100 μM) or NAA/IAA/IBA (0.05, 0.1, 1, 2 and 5 μM). For IBA, two additional concentrations (10 and 25 μM) were also analyzed. Seedlings grown on media supplemented with an equal volume of DMSO were used as control. The seedlings were allowed to grow for 6 days and the plates were photographed at 24 h intervals. Primary root length was measured using Image J software. The difference in the number of lateral roots (LR) and root hairs was visually observed. Microscopic images were taken on a Leica Thunder Imager System (Leica Microsystems Ltd., Switzerland) and the images were processed with LAS X software.

Another test deals with tobacco leaf explants. The test is described as follows: Shoot organogenesis from tobacco leaf explants in vitro (Experiment 4). Format: cell-based, Nicotiana tabacum L. cv. Petit Havana SRI. The settings on record: 8 weeks.
For test [4], the system named is WT Arabidopsis seedlings. Nature of the test: Root growth of WT Arabidopsis seedlings in the presence of NPA (Experiment 7). Format: in vivo, A. thaliana. The settings on record: NPA even at low concentrations (0.5 μM). Here is the method:
as §1
To analyze the effect of TAA on root growth in the presence of NPA (N-1-naphthylphthalamic acid), WT Arabidopsis seedlings were germinated as described and uniform-looking 8-day-old seedlings were transferred to germination medium supplemented with different concentrations of TAA (5 and 10 μM) and different concentrations of NPA (0, 0.5, 1, 2, 4, and 8 μM). The seedlings were allowed to grow for 6 days and the plates were photographed at 24 h intervals. […]

Setting [5] is: 1 mg/L IAA added to 3% MS + 2 mg/L kinetin.
Setting [6] is: basic shoot regeneration media: 3% MS media + 2 mg/L kinetin.

`O=C(O)COc1ccc(Cl)cc1Cl` [2,4D, 2,4-dichlorophenoxyacetic acid]: the shoot organogenesis result in test [1] (0.05, 0.1, 0.5, 1.0 and 2.0 mg/L with 1 mg/L BAP) was “did not show any shoot formation”. In test [2] (by Day 14), the “organogenesis from tomato cotyledon explants” value was “formed more callus and few of the explants showed longer roots”. The “organogenesis from tomato cotyledon explants (root formation)” value (from here on “organogenesis … (root formation)”) in test [2] is “the explants enlarged in size and started showing signs of callus formation”.
Turning to `O=C(O)Cc1c[nH]c2ccccc12` [IAA, indole-3-acetic acid, reference compound], in the test with WT Arabidopsis seedlings [3], the IC50 is 100 nM. The shoot organogenesis result in test [1] (2 mg/L with 1 mg/L BAP) was “mostly callus and root formation”. For the same compound, the shoot organogenesis entry in test [1] (0.05, 0.1, 0.5 and 1.0 mg/L with 1 mg/L BAP) is “better shoot formation than NAA”. For the same compound, the “organogenesis … (root formation)” value in test [2] is recorded as “rapid root formation”. Also, in the test with tobacco leaf explants (setting [5]), the “increase of number of shoots regenerated per explant versus basic shoot regeneration media” value was “more than 3 times” and the “increase of total number of shoots regenerated versus basic shoot regeneration media” value is recorded as “more than 3 times”.
In the case of `O=C(O)CCCc1c[nH]c2ccccc12` [IBA, indole-3-butyric acid], the IC50 in the test with WT Arabidopsis seedlings [3] was determined as 10000 nM. Moreover, the shoot organogenesis entry in test [1] (0.05, 0.1 and 0.5 mg/L with 1 mg/L BAP) is “callus and well-defined shoot formation”; in test [1] (1.0 and 2.0 mg/L with 1 mg/L BAP) it was “mostly callus and some root formation”. Moreover, in test [2], the “organogenesis … (root formation)” value is given as “rapid root formation”.
Take `O=C(O)Cc1cccc2ccccc12` [NAA, naphthalene-1-acetic acid]: the IC50 with WT Arabidopsis seedlings [3] was 50 nM. In addition, the shoot organogenesis result in test [1] (0.05 mg/L with 1 mg/L BAP) is listed as “most explants produced callus, but a few produced shoots”; in test [1] (higher concentrations (above 0.05 up to 2.0 mg/L) with 1 mg/L BAP, Day 28), “mostly callus by Day 28, but a few of them showed root formation”. Moreover, the “organogenesis … (root formation)” value in test [2] is listed as “rapid root formation”.
With `O=C(O)c1ccccc1C(=O)Nc1cccc2ccccc12` [NPA, N-1-naphthylphthalamic acid, reference compound], the “primary root length and number of LR” value in the test with WT Arabidopsis seedlings [4] is “reduced primary root length and the number of LR”.
For `c1coc(CNc2ncnc3[nH]cnc23)c1` [kinetin, reference compound], in the test on tobacco leaf explants (setting [6]), the “average number of shoots per explant” value stood at 3.10 and the “total number of shoots regenerated per plate” value is 21.7.

The values are drawn from US20250072423A1, “THIOPHENE ACETIC ACID FOR PLANT GROWTH REGULATION” (priority 2023, published 2025).
